Literature values, collected in patent US7855190B2, “Methods of hormonal treatment utilizing contraceptive regimens with continuous estrogen administration” (Teva Women's Health, Inc., priority 2003, dated 2010).

Conditions: for amount equivalent to 0.050 mg of levonorgestrel: relative potency of progestins; for amount roughly equivalent to 30 μg of ethinyl estradiol: relative potency of estrogens

## C#CC1(O)CC[C@H]2[C@@H]3CCC4=CC(=O)CC[C@@H]4[C@H]3CC[C@@]21CC (mixture of isomers) [norgestrel]
  amount equivalent to 0.050 mg of levonorgestrel: about 0.100 mg

## C#C[C@]1(O)CC[C@H]2[C@@H]3CCC4=CC(=O)CC[C@@H]4[C@H]3C(=C)C[C@@]21CC [3-ketodesogestrel]
  amount equivalent to 0.050 mg of levonorgestrel: about 0.050 mg

## C[C@]12CC[C@@H]3c4ccc(O)cc4CC[C@H]3[C@@H]1CC[C@@H]2O [17β-estradiol]
  amount roughly equivalent to 30 μg of ethinyl estradiol: ~2,000 μg

## C#C[C@]1(O)CC[C@H]2[C@@H]3CCC4=CCCC[C@@H]4[C@H]3C(=C)C[C@@]21CC [desogestrel]
  amount equivalent to 0.050 mg of levonorgestrel: about 0.050 mg

## C#C[C@]1(O)C=C[C@H]2[C@@H]3CCC4=CC(=O)CC[C@@H]4[C@H]3CC[C@@]21CC [gestodene]
  amount equivalent to 0.050 mg of levonorgestrel: about 0.035 mg

## C#C[C@]1(O)CC[C@H]2[C@@H]3CCc4cc(OC)ccc4[C@H]3CC[C@@]21C [mestranol]
  amount roughly equivalent to 30 μg of ethinyl estradiol: ~60 µg

## C#C[C@]1(OC(C)=O)CC[C@H]2[C@@H]3CCC4=CC(=O)CC[C@@H]4[C@H]3CC[C@@]21C [norethindrone acetate]
  amount equivalent to 0.050 mg of levonorgestrel: about 0.175 mg
